Eleven compounds from ChEMBL document CHEMBL4002639, “DL-3-n-butylphthalide-Edaravone hybrids as novel dual inhibitors of amyloid-β aggregation and monoamine oxidases with high antioxidant potency for Alzheimer's therapy” (Bioorg Med Chem Lett, 2017) can be followed below.

pIC50: −log10 of the molar value. Calls of active or inactive are those of the source. No cut-off for these calls is given here. A value given as a limit tells only on which side of the number the result lay.

The inhibition is the change of the read-out against control, counted positive when it falls. A word on the pIC50: it is −log10 of the IC50, conventionally taken in molar units.

Test [1] has as its target T1, Amine oxidase [flavin-containing] A (Homo sapiens, UniProt P21397).
T1 sequence (P21397 whole entry): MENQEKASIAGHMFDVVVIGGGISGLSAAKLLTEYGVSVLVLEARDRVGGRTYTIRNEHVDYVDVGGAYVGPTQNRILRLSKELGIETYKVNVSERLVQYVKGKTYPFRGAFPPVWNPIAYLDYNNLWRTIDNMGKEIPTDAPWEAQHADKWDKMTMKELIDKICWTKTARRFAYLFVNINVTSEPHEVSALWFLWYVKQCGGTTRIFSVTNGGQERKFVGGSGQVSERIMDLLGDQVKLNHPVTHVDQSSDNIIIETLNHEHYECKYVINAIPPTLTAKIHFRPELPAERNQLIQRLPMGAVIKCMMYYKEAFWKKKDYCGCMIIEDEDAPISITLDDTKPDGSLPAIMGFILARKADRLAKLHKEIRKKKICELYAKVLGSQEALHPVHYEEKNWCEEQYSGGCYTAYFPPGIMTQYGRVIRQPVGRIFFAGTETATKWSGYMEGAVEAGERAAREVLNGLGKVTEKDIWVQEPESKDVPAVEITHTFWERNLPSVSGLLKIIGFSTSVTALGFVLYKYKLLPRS
Nature of the test: Inhibition of recombinant human MAO-A at 10 uM using kynuramine as substrate after 30 mins by fluorescence assay. As to conditions: 0.5 h.

Test [2] has as its target Amyloid-beta precursor protein (Homo sapiens) (UniProt P05067). Nature of the test: Inhibition of self-induced Amyloid beta (1 to 42) (unknown origin) aggregation at 25 uM after 24 hrs by thioflavin T-based fluorometric assay relative to control.
Test [3] deals with T2, Amine oxidase [flavin-containing] B (Homo sapiens, UniProt P27338).
T2 sequence (P27338 whole entry): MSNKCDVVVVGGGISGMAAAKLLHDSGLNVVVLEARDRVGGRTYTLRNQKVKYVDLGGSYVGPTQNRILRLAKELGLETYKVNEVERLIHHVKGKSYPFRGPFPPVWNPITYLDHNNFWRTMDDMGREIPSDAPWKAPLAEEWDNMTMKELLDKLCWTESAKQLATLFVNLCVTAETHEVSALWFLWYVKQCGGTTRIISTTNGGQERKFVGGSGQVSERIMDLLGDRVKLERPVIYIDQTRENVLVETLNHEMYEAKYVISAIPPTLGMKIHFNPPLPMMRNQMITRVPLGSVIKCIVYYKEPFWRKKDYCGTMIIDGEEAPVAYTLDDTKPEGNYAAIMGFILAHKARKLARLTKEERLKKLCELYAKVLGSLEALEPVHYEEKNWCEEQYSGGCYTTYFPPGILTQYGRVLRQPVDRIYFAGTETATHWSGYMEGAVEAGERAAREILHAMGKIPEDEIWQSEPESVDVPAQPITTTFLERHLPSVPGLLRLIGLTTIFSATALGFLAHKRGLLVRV
Nature of the test: Inhibition of recombinant human MAO-B at 10 uM using kynuramine as substrate after 30 mins by fluorescence assay. The note with it: 0.5 h.

A short description of test [4]: Antioxidant activity assessed as trolox equivalent of AAPH radical scavenging activity at 1 uM preincubated for 15 mins followed by AAPH addition measured every min for 90 mins by ORAC-FL assay. Type of test: functional.
The species named for a further test is Homo sapiens. Nature of the test: Selectivity index, ratio of IC50 for recombinant human MAO-A to IC50 for recombinant human MAO-B.
Test [5] addresses T2, Amine oxidase [flavin-containing] B.
Description: Inhibition of recombinant human MAO-B using kynuramine as substrate after 30 mins by fluorescence assay
The target in test [6] is T1, Amine oxidase [flavin-containing] A. Nature of the test: Inhibition of recombinant human MAO-A using kynuramine as substrate after 30 mins by fluorescence assay.

Amyloid-beta precursor protein (Homo sapiens), sequence (P05067 whole entry): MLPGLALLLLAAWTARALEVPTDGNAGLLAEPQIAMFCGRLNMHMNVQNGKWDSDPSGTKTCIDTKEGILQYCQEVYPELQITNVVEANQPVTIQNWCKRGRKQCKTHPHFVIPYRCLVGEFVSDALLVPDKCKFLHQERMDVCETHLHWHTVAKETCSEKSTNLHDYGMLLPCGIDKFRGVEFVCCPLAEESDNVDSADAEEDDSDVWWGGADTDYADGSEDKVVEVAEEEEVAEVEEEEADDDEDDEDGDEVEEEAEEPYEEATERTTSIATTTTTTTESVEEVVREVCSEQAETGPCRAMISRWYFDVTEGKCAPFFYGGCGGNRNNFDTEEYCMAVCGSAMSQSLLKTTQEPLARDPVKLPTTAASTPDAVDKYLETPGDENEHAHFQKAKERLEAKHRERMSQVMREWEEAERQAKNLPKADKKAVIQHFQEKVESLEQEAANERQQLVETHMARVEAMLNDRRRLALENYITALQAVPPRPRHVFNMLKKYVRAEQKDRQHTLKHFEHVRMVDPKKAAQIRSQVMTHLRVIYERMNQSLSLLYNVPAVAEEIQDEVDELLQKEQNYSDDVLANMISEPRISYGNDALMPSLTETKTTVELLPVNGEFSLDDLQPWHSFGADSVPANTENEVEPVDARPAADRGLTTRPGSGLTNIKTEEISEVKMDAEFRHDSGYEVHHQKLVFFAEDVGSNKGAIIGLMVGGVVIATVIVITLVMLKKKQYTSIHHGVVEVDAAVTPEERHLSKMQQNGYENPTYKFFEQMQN

For the compound `CCCCC1OC(=O)c2ccccc21` (racemic) [RAC-3-N-BUTYLPHTHALIDE], the inhibition at 10 µM in test [1] is 11.2%; in test [3] it was 18.2%. This compound also displayed an inhibition in test [2] of 1.2%. The Activity in test [4] amounted to 0.21 µMequiv/µM.
In the case of `CCCCCCCC1OC(=O)c2cc(-n3nc(C(F)(F)F)cc3O)ccc21` (stereo unspecified), the inhibition result in test [2] was “inactive”. The Activity in test [4] was found to be 2.21 µMequiv/µM.
Take `CCCCC1OC(=O)c2cc(-n3nc(C(F)(F)F)cc3O)ccc21` (stereo unspecified): in test [2], the inhibition was 50.1 to 71.5%. In test [4], the Activity was found to be 2.22 µMequiv/µM.
Take `CCCCCCC1OC(=O)c2cc(-n3nc(C(F)(F)F)cc3O)ccc21` (stereo unspecified): the inhibition result in test [2] was “inactive”. In addition, the Activity in test [4] worked out at 2.28 µMequiv/µM.
`CCCCCC1OC(=O)c2cc(N3N=C(C)CC3=O)ccc21` (stereo unspecified): the Ratio IC50 in the test listed under Homo sapiens was 1.5. The pIC50 is 4.89 in test [5] and 4.71 in test [6]. In test [2], this compound showed an inhibition of 50.1 to 71.5%. In test [4], the Activity was found to be 0.62 µMequiv/µM.
For `CCCCCCCC1OC(=O)c2cc(N3N=C(C)CC3=O)ccc21` (stereo unspecified), the inhibition in test [2] was 71.5%. Also, in test [4], the Activity is 1.18 µMequiv/µM.
As to `CCCCCCC1OC(=O)c2cc(N3N=C(C)CC3=O)ccc21` (stereo unspecified), in the test listed under Homo sapiens, the Ratio IC50 amounted to 2. The pIC50 was 5.12 in test [5] and 4.82 in test [6]. Further, the inhibition in test [2] fell in the range of 50.1 to 71.5%. Further, the Activity in test [4] worked out at 0.85 µMequiv/µM.
Regarding `COc1cc(/C=C/C(=O)CC(=O)/C=C/c2ccc(O)c(OC)c2)ccc1O`, the inhibition in test [2] was found to be 39%.
On to `CCCCC1OC(=O)c2cc(N3N=C(C)CC3=O)ccc21` (stereo unspecified), for which the inhibition in test [2] was 50.1 to 71.5%. For the same compound, the Activity in test [4] worked out at 1.03 µMequiv/µM.
For `CC1=NN(c2ccccc2)C(=O)C1` [EDARAVONE], the inhibition at 10 µM in test [1] was less than 5%; in test [3], 7.29%. Further, in test [2], the inhibition came to 20.1%. For the same compound, in test [4], the Activity was found to be 0.72 µMequiv/µM.
In the case of `CCCCCC1OC(=O)c2cc(-n3nc(C(F)(F)F)cc3O)ccc21` (stereo unspecified), the inhibition result in test [2] is “inactive”. Also, the Activity in test [4] came to 2.37 µMequiv/µM.
